Test results from patent US5869714A, “Salts of omega-3-polyunsaturated fatty acids and pharmaceutical formulations containing them” (Prospa B.V., priority 1994, dated 1999).
Counter-ions that a name gives are not always drawn.

What was measured:
water solubility = format: physicochemical
[1] = system: erythrocyte phospholipids; test: DHA content of erythrocyte phospholipids in healthy volunteers after 3 weeks oral treatment; format: in vivo; conditions: 1 g of DHA daily for 3 weeks
Method: Considering that the phospholipid class of the erythrocyte membrane, along with the degree of unsaturation of the acyl chains, does condition red cell deformability and blood viscosity, it has been conducted a study to ascertain the effect of the salts in question on erythrocyte phospholipid composition, which we describe hereunder in illustration. 8 healthy volunteers were then selected and divided into 4 groups which were treated by oral route for 3 weeks with a daily quantity of DHA 1.0 g in the form of ethyl ester (1.1 g), sodium salt (1.1 g), choline salt (1.3 g) and ethanolamine salt (1.2 g). Before and after treatment samples of venous blood were collected and sodium citrate added, then the erythrocytes were isolated, washed for 3 times with saline solution (0.15M NaCl, pH 7.4) at 0° and again suspended in saline solution. 1-ml samples from the red cell suspensions were treated with 5 ml of methanol for 10 minutes then with 5 ml of chloroform containing 2 mg/100 ml of the antioxidant 2,6-di-tert.butyl-4-methyl-phenol (BHT). The organic solvents originating from 3 extractions were evaporated to dryness and the residue, formed by the erythrocyte phospholipids, was subjected to bidimensional chromatography according to Turner J. D. and Rouser G., Anal. Biochem. (Part 1--Erythrocyte lipids), 38, 423, 1970 to separate the different phospholipid classes: silica gel 60H (90 g, Merck) plus Fluorisil (7.2 g, BDH Chemicals) plates were used; the solvent systems consisted of chloroform:methanol: 25% ammonia:water (90:54:5.5:5.5) and chloroform:methanol:acetone:acetic acid:water (60:20:80:20:10). The various classes were identified against standard phospolipids (Sigma Chemical). A sample of total phospholipids and the various stains isolated were treated with 1.5 ml of boron trifluoride-methanol for 1 h at 65° C. under nitrogen, to prepare the methyl esters of the acids contained in the phospholipids to undergo gas-chromatography. To this end a Hewlet-Packard 5890 gas-chromatograph was used, fitted with a ionisation flame detector and with an HPl column 25 m in length and 0.31 mm in int. diameter; elium was used as the carrier gas, the injection port temperature was 320° C. and the detector temperature 340° C. The chamber temperature was programmed at 170° C. for 1 min., then increased by 4°°C./min up to 250° C. and kept at this temperature for 15 minutes.

[2] = system: thrombus growth rate induced by ADP in the hamster microvascular system; test: in vivo antithrombotic action: growth rate of thrombus induced by ADP in hamster microvascular system; design: species or system hamster (Mesocricetus auratus); conditions: oral; for percentage reduction in ADP-induced thrombus growth rate, of the order of max.: maximum; for antithrombotic activity (in words): 10 days
Description: Considered however that this action is not fully indicative of the possible therapeutic effects of a drug, we measured the in vivo effect of the new salts in extremely significant tests, by determining for instance, their effect on growth rate of a thrombus induced by a known aggregatory agent (adenosine diphosphate; ADP) in the hamster microvascular system (in vivo antithrombotic action).
(§1) In the course of a typical experiment, male hamsters of the Mesocricetus auratus genus, weighing 95-115 g, were acclimatized for 1 week in the laboratory before starting the study, then semi-chronically treated by oral route, for 10 consecutive days with the products under examination. More precisely, the animals were divided into 4 groups: group I received the vehicle alone, group II received DHA ethyl ester 100 mg/kg (equivalent to DHA 92 mg/kg), group III and IV were given DHA 50 mg/kg in the form of ethanolamine salt (59.3 mg/kg) and choline salt (65.7 mg/kg respectively).One hour following the last dose the animals were anaesthetized with sodium pentobarbitone (90 mg/kg, i.p.), the cheek pouch everted with a cotton wool bud and the upper layer and the underlying a vascular connective tissue removed with ophthalmic scissors to expose the lower vascular layer which was then bathed with saline solution and examined under a Leitz Dialux microscope (magnification×250).
Evaluation of the antithrombotic activity requires measuring the growth rate of a thrombus (white body) in the microcirculation induced by the iontophoresis of ADP from a micropipette through the vessel wall. A micropipette of diameter 12μ was filled with 10^-2 M solution of ADP connected with a silver/silver chloride reference electrode placed in the animal's mouth and applied to a venule of diameter 16-40μ. By applying a negative potential to the micropipette, ADP (2×10^-14moles per second) was injected which caused the formation of a white body (platelet thrombus) gradually growing from the wall of the venule. The growth rate of the thrombus was determined by the time taken for 30%, 50% and 90% of the white body to form, 100% referring to total occlusion of the vessel with stasis. When the current was switched off, the white body rapidly embolised and no new white bodies formed until the current was re-applied. Inhibition of thrombus growth rate was calculated by comparing measurements in treated animals with those obtained in the control group (Table 2).

[3] = system: arteriolar thrombus disaggregation; test: thrombolytic action: arteriolar thrombus disaggregation time after electrical vascular damage in the hamster; format: in vivo, hamster (Mesocricetus auratus); conditions: oral; for thrombolytic activity (in words): 10 days
Method: Through a different in vivo experimental model also the effect on thrombus formation and disaggregation was evaluated in the hamster, following vascular damage induced by electrical stimulation (thrombolytic action).
as §1
For the evaluation of the thrombolytic activity a micropipette was filled with 1.0M potassium chloride, applied to an arteriole of diameter 40-60μ and connected to a reference electrode placed in the animal's mouth. A negative potential was applied for 5 seconds using a Grass S48 stimulator to produce a current of 20-30 μA. A second micropipette containing 10^-2 M ADP was applied to the site of electrical damage and a negative potential applied, for 3 seconds. After the current was switched off, the time taken for the resultant thrombus to form and to disaggregate (about 40 seconds) was recorded using a stopwatch. The process of ADP stimulation of the arteriole damaged site was repeated several times and the mean was recorded of the values obtained over one hour and compared with that of the control animals.
The percentage change in the persistence of the thrombus adhering to the damaged site in the treated and untreated animals is therefore an index of the thrombolytic activity of the drug (Table 3).

[4] = 60 minutes post-dose, equiv. to DHA 50 mg/kg × 10 days
[5] = 70 minutes post-dose, equiv. to DHA 50 mg/kg × 10 days
[6] = 80 minutes post-dose, equiv. to DHA 50 mg/kg × 10 days
[7] = 90 minutes post-dose, equiv. to DHA 50 mg/kg × 10 days
[8] = 100 minutes post-dose, equiv. to DHA 50 mg/kg × 10 days
[9] = 110 minutes post-dose, equiv. to DHA 50 mg/kg × 10 days
[10] = 120 minutes post-dose, equiv. to DHA 50 mg/kg × 10 days
[11] = equiv. to DHA 50 mg/kg × 10 days
[12] = 60-70 minutes post-dose, equiv. to DHA 50 mg/kg × 10 days
[13] = 70-80 minutes post-dose, equiv. to DHA 50 mg/kg × 10 days
[14] = 80-90 minutes post-dose, equiv. to DHA 50 mg/kg × 10 days
[15] = 90-100 minutes post-dose, equiv. to DHA 50 mg/kg × 10 days
[16] = 100-110 minutes post-dose, equiv. to DHA 50 mg/kg × 10 days
[17] = 110-120 minutes post-dose, equiv. to DHA 50 mg/kg × 10 days
[18] = maximum, equiv. to DHA 50 mg/kg × 10 days

## CC/C=C\C/C=C\C/C=C\C/C=C\C/C=C\CCCC(=O)O [EPA ethanolamine salt]
Water solubility
  water solubility: highly water-soluble

## CC/C=C\C/C=C\C/C=C\C/C=C\C/C=C\C/C=C\CCC(=O)O [DHA ethanolamine salt]
[1]
  Percent increase in DHA content of erythrocyte phospholipids as compared to baseline values: Phosphatidylcholine: 113%
  Percent increase in DHA content of erythrocyte phospholipids as compared to baseline values: Phosphatidylethanolamine: 70%
  Percent increase in DHA content of erythrocyte phospholipids as compared to baseline values: Total phospholipids: 103%
[2]; [4]
  Percentage reduction, as compared to the controls, of thrombus growth rate induced by ADP: 16.5%
[2]; [5]
  Percentage reduction, as compared to the controls, of thrombus growth rate induced by ADP: 29.8%
[2]; [6]
  Percentage reduction, as compared to the controls, of thrombus growth rate induced by ADP: 32.2%
[2]; [7]
  Percentage reduction, as compared to the controls, of thrombus growth rate induced by ADP: 33.2%
[2]; [8]
  Percentage reduction, as compared to the controls, of thrombus growth rate induced by ADP: 26.6%
[2]; [9]
  Percentage reduction, as compared to the controls, of thrombus growth rate induced by ADP: 25.0%
[2]; [10]
  Percentage reduction, as compared to the controls, of thrombus growth rate induced by ADP: 22.3%
[2]; [11]
  percentage reduction in ADP-induced thrombus growth rate, of the order of max.: 33-34%
[2]
  antithrombotic activity (in words): highly active
[3]; [12]
  Percentage reduction, as compared to the controls, of arteriolar thrombus disaggregation time: 30.3%
[3]; [13]
  Percentage reduction, as compared to the controls, of arteriolar thrombus disaggregation time: 34.2%
[3]; [14]
  Percentage reduction, as compared to the controls, of arteriolar thrombus disaggregation time: 34.5%
[3]; [15]
  Percentage reduction, as compared to the controls, of arteriolar thrombus disaggregation time: 38.1%
[3]; [16]
  Percentage reduction, as compared to the controls, of arteriolar thrombus disaggregation time: 30.4%
[3]; [17]
  Percentage reduction, as compared to the controls, of arteriolar thrombus disaggregation time: 29.8%
[3]; [18]
  reduction in disaggregation time: 37-38%
[3]
  thrombolytic activity (in words): definitely more active, if given at the same doses
Water solubility
  water solubility: totally water-soluble

## CC/C=C\C/C=C\C/C=C\C/C=C\C/C=C\C/C=C\CCC(=O)O [DHA sodium salt, reference compound]
[1]; sodium salt
  Percent increase in DHA content of erythrocyte phospholipids as compared to baseline values: Phosphatidylcholine: 93%
  Percent increase in DHA content of erythrocyte phospholipids as compared to baseline values: Phosphatidylethanolamine: 25%
  Percent increase in DHA content of erythrocyte phospholipids as compared to baseline values: Total phospholipids: 75%

## CC/C=C\C/C=C\C/C=C\C/C=C\C/C=C\CCCC(=O)O [EPA choline salt]
Water solubility
  water solubility: water-soiuble

## CC/C=C\C/C=C\C/C=C\C/C=C\C/C=C\C/C=C\CCC(=O)O [DHA choline salt]
[1]
  Percent increase in DHA content of erythrocyte phospholipids as compared to baseline values: Phosphatidylcholine: 146%
  Percent increase in DHA content of erythrocyte phospholipids as compared to baseline values: Phosphatidylethanolamine: 38%
  Percent increase in DHA content of erythrocyte phospholipids as compared to baseline values: Total phospholipids: 102%
[2]; [4]
  Percentage reduction, as compared to the controls, of thrombus growth rate induced by ADP: 15.6%
[2]; [5]
  Percentage reduction, as compared to the controls, of thrombus growth rate induced by ADP: 35.4%
[2]; [6]
  Percentage reduction, as compared to the controls, of thrombus growth rate induced by ADP: 28.3%
[2]; [7]
  Percentage reduction, as compared to the controls, of thrombus growth rate induced by ADP: 34.2%
[2]; [8]
  Percentage reduction, as compared to the controls, of thrombus growth rate induced by ADP: 20.8%
[2]; [9]
  Percentage reduction, as compared to the controls, of thrombus growth rate induced by ADP: 20.2%
[2]; [10]
  Percentage reduction, as compared to the controls, of thrombus growth rate induced by ADP: 24.7%
[2]; [11]
  percentage reduction in ADP-induced thrombus growth rate, of the order of max.: 33-34%
[2]
  antithrombotic activity (in words): highly active
[3]; [12]
  Percentage reduction, as compared to the controls, of arteriolar thrombus disaggregation time: 31.6%
[3]; [13]
  Percentage reduction, as compared to the controls, of arteriolar thrombus disaggregation time: 32.8%
[3]; [14]
  Percentage reduction, as compared to the controls, of arteriolar thrombus disaggregation time: 35.4%
[3]; [15]
  Percentage reduction, as compared to the controls, of arteriolar thrombus disaggregation time: 37.7%
[3]; [16]
  Percentage reduction, as compared to the controls, of arteriolar thrombus disaggregation time: 28.6%
[3]; [17]
  Percentage reduction, as compared to the controls, of arteriolar thrombus disaggregation time: 29.1%
[3]; [18]
  reduction in disaggregation time: 37-38%
[3]
  thrombolytic activity (in words): definitely more active, if given at the same doses

## CC/C=C\C/C=C\C/C=C\C/C=C\C/C=C\C/C=C\CCC(=O)OCC [DHA ethyl ester, reference compound]
[1]
  Percent increase in DHA content of erythrocyte phospholipids as compared to baseline values: Phosphatidylcholine: 77%
  Percent increase in DHA content of erythrocyte phospholipids as compared to baseline values: Phosphatidylethanolamine: 10%
  Percent increase in DHA content of erythrocyte phospholipids as compared to baseline values: Total phospholipids: 56%
[2]; 60 minutes post-dose, 100 mg/kg × 10 days
  Percentage reduction, as compared to the controls, of thrombus growth rate induced by ADP: 5.5%
[2]; 70 minutes post-dose, 100 mg/kg × 10 days
  Percentage reduction, as compared to the controls, of thrombus growth rate induced by ADP: 12.5%
[2]; 80 minutes post-dose, 100 mg/kg × 10 days
  Percentage reduction, as compared to the controls, of thrombus growth rate induced by ADP: 26.3%
[2]; 90 minutes post-dose, 100 mg/kg × 10 days
  Percentage reduction, as compared to the controls, of thrombus growth rate induced by ADP: 17.4%
[2]; 100 minutes post-dose, 100 mg/kg × 10 days
  Percentage reduction, as compared to the controls, of thrombus growth rate induced by ADP: 15.1%
[2]; 110 minutes post-dose, 100 mg/kg × 10 days
  Percentage reduction, as compared to the controls, of thrombus growth rate induced by ADP: 8.7%
[2]; 120 minutes post-dose, 100 mg/kg × 10 days
  Percentage reduction, as compared to the controls, of thrombus growth rate induced by ADP: 14.9%
[2]
  antithrombotic activity (in words): moderately active
[3]; 60-70 minutes post-dose, 100 mg/kg × 10 days
  Percentage reduction, as compared to the controls, of arteriolar thrombus disaggregation time: 21.4%
[3]; 70-80 minutes post-dose, 100 mg/kg × 10 days
  Percentage reduction, as compared to the controls, of arteriolar thrombus disaggregation time: 30.5%
[3]; 80-90 minutes post-dose, 100 mg/kg × 10 days
  Percentage reduction, as compared to the controls, of arteriolar thrombus disaggregation time: 36.2%
[3]; 90-100 minutes post-dose, 100 mg/kg × 10 days
  Percentage reduction, as compared to the controls, of arteriolar thrombus disaggregation time: 32.9%
[3]; 100-110 minutes post-dose, 100 mg/kg × 10 days
  Percentage reduction, as compared to the controls, of arteriolar thrombus disaggregation time: 27.8%
[3]; 110-120 minutes post-dose, 100 mg/kg × 10 days
  Percentage reduction, as compared to the controls, of arteriolar thrombus disaggregation time: 25.9%
[3]; maximum, 100 mg/kg × 10 days
  percentage reduction in arteriolar thrombus disaggregation time: 36.2%
[3]
  thrombolytic activity (in words): highly active
